In the supplement of paper PMC11061612:

Assays:
Experiment in all cases: combination Emax (second highest fraction inhibited in the dose matrix, 72 h); higher = more inhibition; extreme values may be limits of the assay
[1] = tested on: A3-KAW (B-Cell Non-Hodgkin's Lymphoma)
Method in brief: (§1)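 Cell lines in DMEM/F12 or RPMI with 10% FBS were plated in 1536-well plates, held 24 hours at 37°C, 5% CO2, then given two-drug dose matrices for 72 hours (DMSO typically 0.2%). Viability was read by CellTiter-Glo 2.0 luminescence and scaled as inhibition from 0 (vehicle wells) to 1 (blank wells). Combination Emax is the second-highest inhibition in the matrix; Bliss excess is observed combination effect minus expected EA + EB − EA·EB, EA and EB being single-agent effects.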

A498 (Kidney Carcinoma) = tested on: A498 (Kidney Carcinoma)
Method in brief: as §1

[2] = tested on: CAPAN-2 (Pancreatic Carcinoma)
Method in brief: as §1

CAS-1 (Glioblastoma) = tested on: CAS-1 (Glioblastoma)
Method in brief: as §1

[3] = tested on: HCC1954 (Breast Carcinoma)
Method in brief: as §1

Hs-445 (Non-Cancerous) = tested on: Hs-445 (Non-Cancerous)
Method in brief: as §1

Row | SMILES | combination Emax [1] | combination Emax (A498 (Kidney Carcinoma)) | combination Emax [2] | combination Emax (CAS-1 (Glioblastoma)) | combination Emax [3] | combination Emax (Hs-445 (Non-Cancerous))
1 | COc1cccc2c1C(=O)c1c(O)c3c(c(O)c1C2=O)C[C@@](O)(C(=O)CO)C[C@@H]3O[C@H]1C[C@H](N)[C@H](O)[C@H](C)O1 [Doxorubicin] + Cc1cc2ncnn2cc1Nc1ncc2c(n1)n(C1CCOCC1)c(=O)n2C [AZD7648] (first compound max 1 µM, 7x7, partner max 10 µM) | 0.984 | 0.598 | 0.197 | 0.775 | 0.729 | 0.94
2 | Cc1cc2ncnn2cc1Nc1ncc2c(n1)n(C1CCOCC1)c(=O)n2C [AZD7648] + CCN(CCO)CCCOc1ccc2c(Nc3cc(CC(=O)Nc4cccc(F)c4)[nH]n3)ncnc2c1 [AZD2811] (first compound max 10 µM, 7x7, partner max 1 µM) | 0.608 | 0.439 | 0.239 | 0.427 | 0.342 | 0.465
3 | CC(=O)c1c(C)c2cnc(Nc3ccc(N4CCNCC4)cn3)nc2n(C2CCCC2)c1=O [Palbociclib] + CC1(C)CCC(CN2CCN(c3ccc(C(=O)NS(=O)(=O)c4ccc(NCC5CCOCC5)c([N+](=O)[O-])c4)c(Oc4cnc5[nH]ccc5c4)c3)CC2)=C(c2ccc(Cl)cc2)C1 [Venetoclax] (first compound max 10 µM, 7x7, partner max 1 µM) | 0.826 | 0.318 | 0.0393 | 0.274 | 0 | 0.746
4 | CC1(C)CCC(CN2CCN(c3ccc(C(=O)NS(=O)(=O)c4ccc(NCC5CCOCC5)c([N+](=O)[O-])c4)c(Oc4cnc5[nH]ccc5c4)c3)CC2)=C(c2ccc(Cl)cc2)C1 [Venetoclax] + COc1cc(Nc2ncc3c(n2)-c2ccc(Cl)cc2C(c2c(F)cccc2OC)=NC3)ccc1C(=O)O [Alisertib] (first compound max 1 µM, 7x7, partner max 10 µM) | 0.759 | 0.386 | 0.244 | 0.744 | 0.36 | 0.857
5 | CN(C)CCCOc1ccc(-c2ccc3ncc4c(c3c2)n(C2CCOCC2)c(=O)n4C)cn1 [AZD0156] + C[C@@H]1COCCN1C2=NC(=NC(=C2)C3(CC3)[S@](=N)(=O)C)C4=C5C=CNC5=NC=C4 [AZD6738] (first compound max 1 µM, 7x7, partner max 10 µM) | 0.995 | 0.703 | 0.395 | 0.582 | 0.435 | 0.868
6 | CN(CCO)CC[C@H](CSc1ccccc1)Nc1ccc(S(=O)(=O)NC(=O)c2ccc(N3CCC([C@@H](O)c4ccccc4-c4ccc(Cl)cc4)CC3)cc2)cc1S(=O)(=O)C(F)(F)F [AZD4320] + CCN(CCO)CCCOc1ccc2c(Nc3cc(CC(=O)Nc4cccc(F)c4)[nH]n3)ncnc2c1 [AZD2811] (first compound max 1 µM, 7x7, partner max 1 µM) | 0.371 | 0.218 | 0.776 | 0.417 | 0.851 | 0.926
7 | CC1(C)CCC(CN2CCN(c3ccc(C(=O)NS(=O)(=O)c4ccc(NCC5CCOCC5)c([N+](=O)[O-])c4)c(Oc4cnc5[nH]ccc5c4)c3)CC2)=C(c2ccc(Cl)cc2)C1 [Venetoclax] + Cn1cnc2c(F)c(Nc3ccc(Br)cc3Cl)c(C(=O)NOCCO)cc21 [Selumetinib] (first compound max 1 µM, 7x7, partner max 3 µM) | 0.216 | 0.433 | 0.364 | 0.158 | 0.186 | 0.395
8 | CC1(C)CCC(CN2CCN(c3ccc(C(=O)NS(=O)(=O)c4ccc(NCC5CCOCC5)c([N+](=O)[O-])c4)c(Oc4cnc5[nH]ccc5c4)c3)CC2)=C(c2ccc(Cl)cc2)C1 [Venetoclax] + C1CN(CCC1(C(=O)N[C@@H](CCO)C2=CC=C(C=C2)Cl)N)C3=NC=NC4=C3C=CN4 [Capivasertib] (first compound max 1 µM, 7x7, partner max 3 µM) | 0.282 | 0.537 | 0.154 | 0.407 | 0.558 | 0.751
9 | CC1(C)CCC(CN2CCN(c3ccc(C(=O)NS(=O)(=O)c4ccc(NCC5CCOCC5)c([N+](=O)[O-])c4)c(Oc4cnc5[nH]ccc5c4)c3)CC2)=C(c2ccc(Cl)cc2)C1 [Venetoclax] + Cc1cc2ncnn2cc1Nc1ncc2c(n1)n(C1CCOCC1)c(=O)n2C [AZD7648] (first compound max 1 µM, 7x7, partner max 10 µM) | 0.417 | 0.381 | 0.219 | 0.279 | 0.336 | 0.405
10 | NC1(C(=O)N[C@@H](CCO)c2ccc(Cl)cc2)CCN(c2ncnc3[nH]ccc23)CC1 [Capivasertib] + CC(C)n1c(=O)n(C)c2cnc3cc(F)c(-c4ccc(OCCCN5CCCCC5)nc4)cc3c21 [AZD1390] (first compound max 10 µM, 7x7, partner max 0.3 µM) | 0.49 | 0.542 | 0.222 | 0.543 | 0.752 | 0.483
11 | CN(CCO)CC[C@H](CSc1ccccc1)Nc1ccc(S(=O)(=O)NC(=O)c2ccc(N3CCC([C@@H](O)c4ccccc4-c4ccc(Cl)cc4)CC3)cc2)cc1S(=O)(=O)C(F)(F)F [AZD4320] + C[C@@H]1COCCN1C2=NC(=NC(=C2)C3(CC3)[S@](=N)(=O)C)C4=C5C=CNC5=NC=C4 [AZD6738] (first compound max 1 µM, 7x7, partner max 10 µM) | 0.986 | 0.722 | 0.791 | 0.787 | 0.734 | 1
12 | NC1(C(=O)N[C@@H](CCO)c2ccc(Cl)cc2)CCN(c2ncnc3[nH]ccc23)CC1 [Capivasertib] + CC(=O)c1c(C)c2cnc(Nc3ccc(N4CCNCC4)cn3)nc2n(C2CCCC2)c1=O [Palbociclib] (first compound max 10 µM, 7x7, partner max 10 µM) | 0.846 | 0.629 | 0.242 | 0.635 | 0.74 | 0.613
13 | CC1(C)CCC(CN2CCN(c3ccc(C(=O)NS(=O)(=O)c4ccc(NCC5CCOCC5)c([N+](=O)[O-])c4)c(Oc4cnc5[nH]ccc5c4)c3)CC2)=C(c2ccc(Cl)cc2)C1 [Venetoclax] + CN(C)CCCOc1ccc(-c2ccc3ncc4c(c3c2)n(C2CCOCC2)c(=O)n4C)cn1 [AZD0156] (first compound max 1 µM, 7x7, partner max 1 µM) | 0.288 | 0.263 | 0.199 | 0.239 | 0.162 | 0.221
14 | CC(=O)Nc1cccc(-n2c(=O)n(C3CC3)c(=O)c3c(Nc4ccc(I)cc4F)n(C)c(=O)c(C)c32)c1 [Trametinib] + Cc1nc(-c2cn3c(n2)-c2ccc(-c4cnn(C(C)(C)C(N)=O)c4)cc2OCC3)n(C(C)C)n1 [Taselisib] (first compound max 1 µM, 7x7, partner max 10 µM) | 0.726 | 0.861 | 0.578 | 0.957 | 0.949 | 0.611
15 | Cn1cnc2c(F)c(Nc3ccc(Br)cc3Cl)c(C(=O)NOCCO)cc21 [Selumetinib] + C=CCn1c(=O)c2cnc(Nc3ccc(N4CCN(C)CC4)cc3)nc2n1-c1cccc(C(C)(C)O)n1 [AZD1775] (first compound max 10 µM, partner max 1 µM) | 0.953 | 0.408 | 0.419 | 0.39 | 0.397 | 0.689
16 | CS(=O)(=O)CCNCc1ccc(-c2ccc3ncnc(Nc4ccc(OCc5cccc(F)c5)c(Cl)c4)c3c2)o1 [Lapatinib] + C[C@@H](Oc1cc(-c2cnn(C3CCNCC3)c2)cnc1N)c1c(Cl)ccc(F)c1Cl [Crizotinib] (first compound max 10 µM, 7x7, partner max 10 µM) | 0.968 | 0.926 | 0.741 | 0.962 | 0.91 | 0.783
17 | Cc1nc(Nc2ncc(C(=O)Nc3c(C)cccc3Cl)s2)cc(N2CCN(CCO)CC2)n1 [Dasatinib] + CC(=O)Nc1cccc(-n2c(=O)n(C3CC3)c(=O)c3c(Nc4ccc(I)cc4F)n(C)c(=O)c(C)c32)c1 [Trametinib] (first compound max 2 µM, 7x7, partner max 1 µM) | 0.464 | 0.503 | 0.892 | 0.946 | 0.279 | 0.517
18 | CN(CCO)CC[C@H](CSc1ccccc1)Nc1ccc(S(=O)(=O)NC(=O)c2ccc(N3CCC([C@@H](O)c4ccccc4-c4ccc(Cl)cc4)CC3)cc2)cc1S(=O)(=O)C(F)(F)F [AZD4320] + Cn1cnc2c(F)c(Nc3ccc(Br)cc3Cl)c(C(=O)NOCCO)cc21 [Selumetinib] (first compound max 1 µM, 7x7, partner max 3 µM) | 0.861 | 0.694 | 0.772 | 0.575 | 0.617 | 0.99
19 | Cc1c2c(nn1C)CSCc1cc(n(C)n1)CSc1cc(c3ccccc3c1)OCCCc1c(C(=O)O)n(C)c3c-2c(Cl)ccc13 [AZD5991] + C1CN(CCC1(C(=O)N[C@@H](CCO)C2=CC=C(C=C2)Cl)N)C3=NC=NC4=C3C=CN4 [Capivasertib] (first compound max 1 µM, 7x7, partner max 3 µM) | 1 | 0.561 | 0.227 | 0.573 | 0.996 | 0.988
20 | CC1(C)CCC(CN2CCN(c3ccc(C(=O)NS(=O)(=O)c4ccc(NCC5CCOCC5)c([N+](=O)[O-])c4)c(Oc4cnc5[nH]ccc5c4)c3)CC2)=C(c2ccc(Cl)cc2)C1 [Venetoclax] + C[C@@H]1COCCN1C2=NC(=NC(=C2)C3(CC3)[S@](=N)(=O)C)C4=C5C=CNC5=NC=C4 [AZD6738] (first compound max 1 µM, 7x7, partner max 10 µM) | 1 | 0.514 | 0.319 | 0.623 | 0.55 | 0.99
21 | C=CCn1c(=O)c2cnc(Nc3ccc(N4CCN(C)CC4)cc3)nc2n1-c1cccc(C(C)(C)O)n1 [AZD1775] + O=C(c1cc(Cc2n[nH]c(=O)c3ccccc23)ccc1F)N1CCN(C(=O)C2CC2)CC1 [Olaparib] (first compound max 1 µM, partner max 10 µM) | 0.944 | 0.51 | 0.394 | 0.52 | 0.218 | 0.899
22 | C[C@@H](c1ccc2nccn2c1)n1nnc2ncc(-c3cnn(C)c3)nc21 [Savolitinib] + CC1(C)CCC(CN2CCN(c3ccc(C(=O)NS(=O)(=O)c4ccc(NCC5CCOCC5)c([N+](=O)[O-])c4)c(Oc4cnc5[nH]ccc5c4)c3)CC2)=C(c2ccc(Cl)cc2)C1 [Venetoclax] (first compound max 1 µM, 7x7, partner max 1 µM) | 0.188 | 0.172 | 0.0542 | 0.212 | 0.136 | 0.292
